Laboratory results reported in patent publication US9421187B2, “Phytocannabinoids for use in the treatment of intestinal inflammatory diseases” (GW Pharma Limited, priority 2011, dated 2016).
Entries after “also recorded” stand apart in the source; their conditions may differ.

What was measured:
[1] = system: mouse peritoneal macrophages; assay: Cytotoxicity assays (MTT cell respiration and neutral red uptake); format: cell-based; settings: isolated phytocannabinoids, 24 hours incubation, highest 10 μM concentration, FIG. 1
Protocol: (§1) Peritoneal macrophages were obtained from mice as previously described by Rossi et al. (Rossi et al. 2010). Briefly, to evoke the production of peritoneal exudates rich in macrophages, mice were injected intraperitoneally (i.p.) with 1 ml of 10% sterile thioglycollate (Sigma, Milan, Italy). After 4 days, mice were euthanized and peritoneal macrophages were collected and seeded in appropriate plates for performing in vitro experiments.
Peritoneal macrophages were cultured in Dulbecco's modified Eagle's medium (DMEM) supplemented with 10% fetal bovine serum. The inflammatory response in peritoneal macrophages was induced by lipopolysaccharide (LPS) from Escherichia coli serotype 0111:B4 (1 μg/ml). The response in macrophages was measured after 18 h LPS incubation.
Cell viability was assessed by evaluating cell respiration as well as neutral red (NR) uptake. Cell respiration was assessed by the mitochondrial-dependent reduction of 3-(4,5-dimethylthiazol-2-yl)-2,5-diphenyltetrazolium bromide (MTT) to formazan. After incubation with one of the phytocannabinoids for 24 hours, macrophages (1×10^5 cells per well seeded in a 96-well plate) were incubated with MTT (250 μg/ml) for 1 h.
The extent of reduction of MTT to formazan was quantitated by measuring the optical density at 490 nm (iMark™ microplate assorbance reader, BioRad). […]

[2] = system: LPS-stimulated nitrite levels in mouse peritoneal macrophages; assay: Nitrites measurement in medium of LPS-stimulated macrophages; format: cell-based; settings: non-cytotoxic concentrations (0.1-10 pM), 30 min pre-treatment, then LPS 1 μg/ml 18 hours, FIG. 3 and 4
Protocol: as §1, with “Briefly,” for “Peritoneal macrophages were obtained from mice as previously described by Rossi et al. (Rossi et al. 2010). Briefly,”
Peritoneal macrophages were cultured in Dulbecco's modified Eagle's medium (DMEM) supplemented with 10% fetal bovine serum. […] The response in macrophages was measured after 18 h LPS incubation.
Nitrites, stable metabolites of NO, were measured in macrophages medium as previously described. Macrophages (5×10^5 cells per well seeded in a 24-well plate) were incubated with test article ([…]) for 30 min, and subsequently with LPS (1 μg/ml) for 18 hours.
The test articles were used at non-cytotoxic concentrations as a pre-treatment for 30 min before LPS-stimulation.

[3] = system: DNBS-induced colitis mice; assay: DNBS-induced colitis, body weight and colon weight/colon length ratio; format: in vivo, mouse
Protocol: (§2) Cannabigerol (CBG), cannabichromene (CBC) and tetrahydrocannabivarin (THCV) were dissolved in ethanol/Tween20/saline. Animals were placed in groups and administered with test article (60 μl per mouse) via IP once daily. Treatment started 3 days before DNBS administration for the preventative treatment experiments or 1 day after DNBS administration for the curative treatments. Test article was administered daily until the sacrifice of the animals, 3 days after DNBS treatment. THCV was only tested for a curative effect.
(§3) Colitis was induced in mice by the intra-colonic administration of DNBS. Briefly, mice were anesthetized and DNBS (8 mg/mouse) was inserted into the colon using a polyethylene catheter (1 mm in diameter) via the rectum (4.5 cm from the anus). Three days after DNBS administration, all animals were euthanized by asphyxiation with CO2. The abdomen was opened by a midline incision and the colon removed, isolated from surrounding tissues, opened along the anti-mesenteric border, rinsed, weighed, length measured, and processed for evaluations.
The colon weight/colon length ratio activity were determined as index of inflammation. Body weight was also evaluated.

[4] = system: inducible nitric oxide synthase (iNOS); assay: iNOS expression in full-thickness colons by western blot, DNBS-induced colitis; format: in vivo, mouse; settings: DNBS-treated mice, FIG. 11
Protocol: as §2, §3
iNOS expression was measured in full-thickness colons from control and DNBS-treated mice by western blot analysis.

[5] = system: DNBS model of intestinal bowel disease in mice; settings: cited from earlier work
[6] = post-treatment (curative), IP once daily from 1 day after DNBS
[7] = pre-treatment (preventative), IP once daily from 3 days before DNBS
[8] = treatment after induction of colitis (curative), IP once daily from 1 day after DNBS

CCCCCc1cc(O)c2c(c1)OC(C)(CCC=C(C)C)C=C2 (centres unmarked) [CBC, Cannabichromene]
cytotoxicity / cell viability [1]: significantly reduced cell viability | LPS-stimulated nitrite levels [2]: reduce LPS-stimulated nitrite production | colon weight:colon length ratio [3, 6]: decrease in the colon weight:length ration however this was not as statistically significant | body weight (decrease associated with the inflammatory response) [3, 7]: significant (p<0.05) prevention of the decrease in bodyweight | colon weight:colon length ratio [3, 7]: significant (p<0.05) reduction | body weight (decrease associated with the inflammatory response) [3, 8]: did not however result in a decrease in body weight | level of expression of iNOS in colonic tissues [4]: did not show a reduction

C=C(C)[C@@H]1CCC(C)=C[C@H]1c1c(O)cc(CCCCC)cc1O [CBD, Cannabidiol]
anti-inflammatory effect in DNBS model [5]: anti-inflammatory effect

C=C(C)[C@@H]1CCC(C)=C[C@H]1c1c(O)cc(CCC)cc1O [CBDV, Cannabidivarin]
LPS-stimulated nitrite levels [2]: reduce LPS-stimulated nitrite production

CCCCCc1cc(O)c(C/C=C(\C)CCC=C(C)C)c(O)c1 [CBG, Cannabigerol]
LPS-stimulated nitrite levels [2]: significantly reduced; also recorded: reduce LPS-stimulated nitrite production | colon weight:colon length ratio [3, 6]: significant (p<0.05) reduction | body weight (decrease associated with the inflammatory response) [3, 7]: highly statistically significant (p<0.001) prevention of the decrease in bodyweight | colon weight:colon length ratio [3, 7]: significant (p<0.05) reduction | body weight (decrease associated with the inflammatory response) [3, 8]: did however not result in a decrease in body weight | level of expression of iNOS in colonic tissues [4]: statistically significantly (p<0.05) lower

CCCc1cc(O)c2c(c1)OC(C)(C)[C@@H]1CCC(C)=C[C@@H]21 [THCV, Tetrahydrocannabivarin]
cytotoxicity / cell viability [1]: significantly reduced cell viability | LPS-stimulated nitrite levels [2]: significantly reduced; also recorded: reduce LPS-stimulated nitrite production | colon weight:colon length ratio [3, 6]: significant (p<0.05) reduction | body weight (decrease associated with the inflammatory response) [3, 8]: prevention of the decrease in bodyweight that is associated with the inflammatory response, however this decrease was not statistically significant | level of expression of iNOS in colonic tissues [4]: statistically significantly (p<0.001) lower
